{"source": "patent US20190112357A1", "about": "“PREVENTION OF PROTEIN DISULFIDE BOND REDUCTION” (MedImmune, LLC, priority 2016, published 2019)", "key": {"GR/GSSG": {"target": "T1, GR/GSSG (Homo sapiens, UniProt P00390)", "T1 construct": "purchased Abcam", "T1 sequence (P00390 44-522)": "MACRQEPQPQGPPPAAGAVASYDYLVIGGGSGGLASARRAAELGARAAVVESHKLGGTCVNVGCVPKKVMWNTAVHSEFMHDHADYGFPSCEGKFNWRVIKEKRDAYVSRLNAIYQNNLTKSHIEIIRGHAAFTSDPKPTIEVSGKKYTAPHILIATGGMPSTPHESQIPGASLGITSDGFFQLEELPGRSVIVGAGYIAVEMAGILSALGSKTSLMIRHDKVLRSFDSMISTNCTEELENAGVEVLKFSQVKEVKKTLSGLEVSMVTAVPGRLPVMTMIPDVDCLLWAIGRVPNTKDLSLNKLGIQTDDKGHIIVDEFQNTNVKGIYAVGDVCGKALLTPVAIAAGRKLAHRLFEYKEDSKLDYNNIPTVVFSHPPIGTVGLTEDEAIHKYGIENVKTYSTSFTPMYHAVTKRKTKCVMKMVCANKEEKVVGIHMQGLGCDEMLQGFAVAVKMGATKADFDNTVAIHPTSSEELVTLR", "test": "DTNB reductase activity assay, recombinant GR/GSSG", "format": "biochemical", "settings": "ATG concentrations lower than 5 μM", "method": "Briefly, culture samples were thawed on ice. […] The samples were then allowed to incubate 5 minutes.\nActivity of the reductases was calculated as follows. […] The activity was then calculated by the following equation: […]"}, "[1]": {"tested_on": "TrxR1 purified from CHO cell cultures", "test": "mAb B reduction by pooled CHO fractions with NADPH and Trx1", "format": "biochemical, Chinese Hamster", "settings": "3 μM Cu^2+ or 100 μM ATG, overnight room temperature", "method": "Purified mAb B was spiked into several solutions containing different combinations of the pooled fractions (PF), recombinant Trx1, GSSG, NADPH, ATG, and Cu^2+. The solutions were incubated at room temperature overnight and the amount of intact antibody remaining was determined by capillary electrophoresis according to the protocol described above. In the first set of samples, purified mAb B was spiked into the pooled fractions with, and without, NADPH.\nThe third set of solutions contained the pooled enzymes, NADPH, Trx1, and either no inhibitor, 3 μM Cu^2+, or 100 μM ATG. […] In the final sample as a control, mAb B was spiked into a solution containing NADPH, Trx1, and GSSG."}, "recombinant TrxR1/Trx1": {"target": "T2, recombinant TrxR1/Trx1 (Rattus norvegicus, UniProt O89049)", "T2 sequence (O89049 1-499)": "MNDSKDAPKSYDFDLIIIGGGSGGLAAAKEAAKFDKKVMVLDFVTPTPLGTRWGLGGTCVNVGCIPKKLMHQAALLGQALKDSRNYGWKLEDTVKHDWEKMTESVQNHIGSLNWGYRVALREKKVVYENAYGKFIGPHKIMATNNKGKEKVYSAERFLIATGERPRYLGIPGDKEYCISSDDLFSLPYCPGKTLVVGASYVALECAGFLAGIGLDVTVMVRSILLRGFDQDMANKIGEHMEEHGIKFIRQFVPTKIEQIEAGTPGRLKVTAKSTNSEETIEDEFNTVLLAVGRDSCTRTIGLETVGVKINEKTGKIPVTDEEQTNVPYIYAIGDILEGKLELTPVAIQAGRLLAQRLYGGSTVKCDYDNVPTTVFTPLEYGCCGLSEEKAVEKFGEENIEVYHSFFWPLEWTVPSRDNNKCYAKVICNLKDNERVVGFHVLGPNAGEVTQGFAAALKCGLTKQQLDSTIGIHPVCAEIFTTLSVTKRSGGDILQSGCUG", "test": "DTNB reductase activity assay, recombinant TrxR1/Trx1", "settings": "ATG concentrations higher than 0.1 μM", "quoted_text": "This assay allows determination of the total reductase activity in a culture sample, as well as determination of the individual contribution made by thioredoxin reductase and glutathione reductase to the total reductase activity of the sample. In this assay, culture samples (cells+media) from 3 L bioreactors were stored frozen until the end of the run, after which the samples were centrifuged to remove the cell pellet then the resulting supernatant was diluted 20-fold into 100 mM tris buffer, pH 7.4, containing 0.4 mM NADPH, 0.15 mM oxidized glutathione, and 3 mM DTNB with the indicated concentration of specific reductase inhibitor. Addition of the enzyme specific inhibitors to the samples allowed the total reductase activity to be determined as well as the individual activity from the thioredoxin and glutathione systems. Reductase activity was monitored by spectroscopic measurement of the increase in absorbance at a wavelength of 412 nm. […] The detected increase in absorbance at this wavelength is caused by the reduction of DTNB (Arnér, ESJ, Biochim. Biophys. Acta—Gen. Subj., 1790:495-526, 2009).\nBriefly, culture samples were thawed on ice. […] The absorbance at a wavelength of 412 nm was determined every 30 seconds, for 20 minutes.\nActivity of the reductases was calculated as follows. The change in absorbance per minute (Δ412) for each well was determined. […]"}, "[2]": {"target": "T3, recombinant mammalian GR/GSSG (Homo sapiens, UniProt P00390)", "T3 construct": "purchased Abcam", "T3 sequence (P00390 44-522)": "T1 sequence (P00390 44-522)", "test": "Reduction of purified mAb B by recombinant GR/GSSG, capillary electrophoresis", "format": "biochemical", "method": "Antibody reduction in cell culture supernatant samples was measured by detecting the presence of reduced species via capillary electrophoresis using standard procedures on a 2100 Bioanalyzer system (Agilent Technologies, Santa Clara, Calif.). Samples were diluted 1-6 fold depending on titer and analyzed under non-reducing conditions following 2100 Bioanalyzer standard protocols. Supernatant samples from 3 L bioreactors were stored frozen until all samples had been acquired and were ready for analysis. Samples were thawed on ice and analyzed immediately to evaluate the amount of reduced antibody in the reactor on each day of the run.\nUsing the same approach with recombinant mammalian enzymes, the glutathione system was evaluated by spiking mAb B into five solutions containing: 1) no enzyme, 2) 1 mM GSSG (oxidized glutathione), 3) 0.2 μM GR (glutathione reductase), 4) 0.2 μM GR with 1 mM GSSG, and 5) 0.02 μM GR with 1 mM GSSG. […] The results indicated a minimal mAb B reduction in the solutions containing GSSG alone. This is the result of an impurity in the GSSG. […] was reduced in the solutions containing both GR and GSSG.\nTo confirm that the activity from a particular reductase system can translate into reduced antibody, a second method was developed to determine the impact of each reductase system on antibody reduction. The principle of the reduction assay is similar to the reductase activity assay described above. The percent of protein reduction without an inhibitor was compared to the percent of protein reduction in the presence of specific inhibitors for GR or TrxR1. In this assay, purified mAb B was spiked into solutions containing recombinant mammalian TrxR1/Trx1 or recombinant mammalian GR/GSSG and stored in an oxygen-free environment overnight. The percent of reduced mAb B antibody was evaluated using capillary electrophoresis, as set forth above."}}, "data": [{"smiles": "OC[C@H]1O[C@H]([S-])[C@H](O)[C@@H](O)[C@@H]1O.[Au+]", "note": "[ATG, aurothioglucose]", "values": [{"measurement": "reductase activity of solutions containing GR/GSSG", "setting": "GR/GSSG", "result": "unaffected"}, {"measurement": "antibody reduction in pooled enzymes, NADPH, Trx1", "setting": "[1]", "result": "completely prevented reduction"}, {"measurement": "TrxR1/Trx1 reductase activity", "setting": "recombinant TrxR1/Trx1", "result": "negligible"}, {"measurement": "antibody reduction in sample containing GR/GSSG", "setting": "[2]; 0.1 mM ATG, purified mAb B, overnight, oxygen-free", "result": "complete reduction of the antibody"}, {"measurement": "specificity in GR/GSSG samples at higher concentrations", "setting": "[2]; 0.5 mM and 1 mM ATG, increasing intact antibody", "result": "no longer specific for the thioredoxin system"}]}]}
